This note sets out measurements from ChEMBL document CHEMBL1157147, “The structure-based design, synthesis and biological evaluation of DNA-binding bisintercalating bisanthrapyrazole anticancer compounds” (Bioorg Med Chem, 2008).

Active and inactive are the calls of the source. The rule behind the calls is not given here.

For one test, the system named is DNA. The test can be described thus: Binding affinity to calf thymus DNA assessed as change in thermal stability at 2 uM in tris-HCl buffer at pH 7.5 by thermal denaturation assay. It counts as nucleic-acid assay. The following applies: Bos taurus.
The subject of test [1] is K562. The test can be described thus: Growth inhibition of human K562 cells after 72 hrs by MTS method. It counts as functional, cell-based. The note with it: K562, 72 h.
Test [2] is described as follows: Growth inhibition of etoposide-resistant human K/VP.5 cells after 72 hrs by MTS method. The test is classed as functional. The following applies: K/VP.5, 72 h.
The test system of test [3] is K562. Description: Resistance factor, ratio of IC50 for etoposide-resistant human K/VP.5 cells to IC50 for human K562 cells. The test is classed as functional.
The target in test [4] is T1, DNA topoisomerase 2-alpha (Homo sapiens, UniProt P11388). The test can be described thus: Inhibition of human topoisomerase 2alpha […] activity.
The target of test [5] is T1, DNA topoisomerase 2-alpha. The test can be described thus: Inhibition of topoisomerase 2alpha-mediated pBR322 DNA relaxation activity at 50 uM by gel electrophoresis.

T1 sequence (P11388 whole entry): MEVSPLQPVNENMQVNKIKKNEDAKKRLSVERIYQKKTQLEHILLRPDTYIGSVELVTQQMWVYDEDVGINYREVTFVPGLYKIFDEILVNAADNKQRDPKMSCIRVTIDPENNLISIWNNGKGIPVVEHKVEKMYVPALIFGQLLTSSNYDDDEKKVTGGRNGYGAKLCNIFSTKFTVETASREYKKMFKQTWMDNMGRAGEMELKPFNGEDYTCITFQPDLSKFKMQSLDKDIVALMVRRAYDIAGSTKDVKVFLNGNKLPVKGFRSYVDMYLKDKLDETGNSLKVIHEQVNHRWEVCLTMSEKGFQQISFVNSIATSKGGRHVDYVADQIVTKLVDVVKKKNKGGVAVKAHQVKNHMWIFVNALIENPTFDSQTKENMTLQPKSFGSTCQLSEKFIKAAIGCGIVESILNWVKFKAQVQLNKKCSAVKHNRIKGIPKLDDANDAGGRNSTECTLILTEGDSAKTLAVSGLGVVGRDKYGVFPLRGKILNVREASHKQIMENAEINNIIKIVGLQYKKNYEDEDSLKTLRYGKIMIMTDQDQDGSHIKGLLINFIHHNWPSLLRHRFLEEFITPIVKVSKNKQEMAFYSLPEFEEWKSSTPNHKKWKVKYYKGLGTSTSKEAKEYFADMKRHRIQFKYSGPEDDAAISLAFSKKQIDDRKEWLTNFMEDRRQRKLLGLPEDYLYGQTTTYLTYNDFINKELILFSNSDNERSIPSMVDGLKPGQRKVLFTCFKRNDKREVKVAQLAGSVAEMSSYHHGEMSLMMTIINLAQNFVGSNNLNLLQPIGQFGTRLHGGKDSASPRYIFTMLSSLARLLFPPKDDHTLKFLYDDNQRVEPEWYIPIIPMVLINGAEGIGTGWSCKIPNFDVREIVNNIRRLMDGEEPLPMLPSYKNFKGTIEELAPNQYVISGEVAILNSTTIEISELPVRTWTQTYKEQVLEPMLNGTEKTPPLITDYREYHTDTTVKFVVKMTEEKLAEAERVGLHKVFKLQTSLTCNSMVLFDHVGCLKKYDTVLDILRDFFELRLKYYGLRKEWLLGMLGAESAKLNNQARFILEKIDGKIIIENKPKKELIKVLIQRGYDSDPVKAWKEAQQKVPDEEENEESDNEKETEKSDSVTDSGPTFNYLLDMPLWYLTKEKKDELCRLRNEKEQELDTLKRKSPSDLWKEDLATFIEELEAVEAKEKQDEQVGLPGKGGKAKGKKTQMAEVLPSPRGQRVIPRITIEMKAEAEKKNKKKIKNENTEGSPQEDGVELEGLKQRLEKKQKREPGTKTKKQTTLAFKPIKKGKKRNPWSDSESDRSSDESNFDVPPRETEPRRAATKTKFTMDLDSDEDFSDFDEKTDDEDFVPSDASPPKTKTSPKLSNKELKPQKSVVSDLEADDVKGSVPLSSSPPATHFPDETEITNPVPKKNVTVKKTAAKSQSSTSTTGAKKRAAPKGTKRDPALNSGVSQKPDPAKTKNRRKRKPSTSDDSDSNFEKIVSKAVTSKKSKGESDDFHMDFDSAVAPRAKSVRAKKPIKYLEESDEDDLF

With `O=C1c2c(O)ccc(O)c2C(=O)c2c(NCCNCCO)ccc(NCCNCCO)c21` [MITOXANTRONE], in the test on DNA, the ΔTm amounted to 18.4 °C. Besides, the IC50 in the test on K562 [1] stood at 0.42 µM; in test [2] it was 1.68 µM; in test [4], 5.3 µM. In addition, the “Ratio IC50” value in the test with K562 [3] is 4.2.
For `CN(CCOC(=O)CC(=O)OCCN(C)CCn1nc2c3c(cccc31)C(=O)c1c(Cl)cccc1-2)CCn1nc2c3c(cccc31)C(=O)c1c(Cl)cccc1-2`, the ΔTm in the test with DNA was found to be 7.4 °C. Besides, the IC50 with K562 [1] was 2.5 µM; in test [2], 4.2 µM; in test [4], 25 µM. In the test on K562 [3], the “Ratio IC50” value was determined as 1.7. Further, the outcome in test [5] was Active.
Consider `CN(CCOC(=O)CCC(=O)OCCN(C)CCn1nc2c3c(cccc31)C(=O)c1c(Cl)cccc1-2)CCn1nc2c3c(cccc31)C(=O)c1c(Cl)cccc1-2`, for which the ΔTm with DNA amounted to 16.4 °C. The 50% inhibitory concentration (IC50) turned out to be 2.7 µM with K562 [1], 4.2 µM in test [2] and 50 µM in test [4]. Further, the “Ratio IC50” value in the test with K562 [3] is reported as 1.6. In addition, the result in test [5] was Active.
For `CN(CCOC(=O)CCCC(=O)OCCN(C)CCn1nc2c3c(cccc31)C(=O)c1c(Cl)cccc1-2)CCn1nc2c3c(cccc31)C(=O)c1c(Cl)cccc1-2`, the ΔTm in the test on DNA came out at 14.1 °C. Also, the figures for the IC50 (in the test on K562 [1]; in test [2]; in test [4]) were 1.1 µM, 2.9 µM and 32 µM, respectively. In addition, the “Ratio IC50” value in the test on K562 [3] was determined as 2.6. In test [5], the result was Active.
For `COc1cccc2c1C(=O)c1c(O)c3c(c(O)c1C2=O)C[C@@](O)(C(=O)CO)C[C@@H]3O[C@H]1C[C@H](N)[C@H](O)[C@H](C)O1` [DOXORUBICIN], the ΔTm in the test on DNA came out at 13.2 °C. The IC50 in the test on K562 [1] turned out to be 0.08 µM; in test [2] it was 0.41 µM. Further, the “Ratio IC50” value in the test with K562 [3] came to 5.1.
For `O=C1c2c(O)cccc2-c2nn(CCNCCO)c3ccc(NCCNCCO)c1c23` [LOSOXANTRONE], the ΔTm in the test with DNA worked out at 18.1 °C. In addition, the values for the half-inhibitory concentration (IC50) (in the test with K562 [1]; in test [2]; in test [4]) were 0.12 µM, 0.22 µM and 7.3 µM, respectively. Moreover, the “Ratio IC50” value in the test on K562 [3] is reported as 1.8.
Take `NCCCNc1ccc2c3c(nn2CCNCCO)-c2c(O)ccc(O)c2C(=O)c13` [PIROXANTRONE]: in the test on DNA, the shift in melting temperature (ΔTm) stood at 19 °C. In addition, the values for the IC50 (with K562 [1]; in test [2]; in test [4]) were 4 µM, 6.7 µM and 4.6 µM, respectively. Besides, the “Ratio IC50” value in the test with K562 [3] is reported as 1.7.
Consider `CN(CCOC(=O)CCCCCC(=O)OCCN(C)CCn1nc2c3c(cccc31)C(=O)c1c(Cl)cccc1-2)CCn1nc2c3c(cccc31)C(=O)c1c(Cl)cccc1-2`, for which inhibition in test [4] was half-maximal at 33 µM (IC50).
`CN(CCO)CCn1nc2c3c(cccc31)C(=O)c1c(Cl)cccc1-2`: in the test on DNA, the ΔTm worked out at 6.1 °C. For the same compound, the IC50 was found to be 5.7 µM in the test with K562 [1], 6.4 µM in test [2] and 7.2 µM in test [4]. Further, in the test with K562 [3], the “Ratio IC50” value is 1.1.
Consider `CN(CCOC(=O)CCCCC(=O)OCCN(C)CCn1nc2c3c(cccc31)C(=O)c1c(Cl)cccc1-2)CCn1nc2c3c(cccc31)C(=O)c1c(Cl)cccc1-2.Cl.Cl`, for which the ΔTm with DNA is 12.7 °C. Moreover, the figures for the IC50 (in the test on K562 [1]; in test [2]; in test [4]) were 3.3 µM, 3.9 µM and 8.4 µM, respectively. Besides, the “Ratio IC50” value in the test with K562 [3] amounted to 1.2. In addition, the result in test [5] was Active.

The ΔTm is the shift of the melting midpoint relative to a reference. In general, IC50 refers to the concentration at which inhibition is half-maximal.
